Experimental data: patent US4720494A, “Anticholinergic eucatropine esters and antiperspirant use thereof” (priority 1984, dated 1988)
“And” between values parts separate entries of the source, which are not always exact repeats. Identical values can stand only once.

Legend:
[1] = test system: sweating of mouse foot (pilocarpine-stimulated); experiment: Mouse foot antiperspirant assay; format: in vivo, ICR/CD-1 male albino mice; conditions: for antiperspirant potency relative to eucatropine (in words): DCC esters, compared with parent eucatropine; for EC50: s.c. 5 μL in foot pad, pilocarpine-stimulated sweating, average EC50
Protocol: For the dose-response determination, four or five groups of 10 ICR/CD-1 male albino mice weighing approximately 20 gm were used. The animals were anaesthetized with 0.20 mL of a 250 mg/mL solution of ethyl carbamate injected intraperitoneally. Anticholinergic test solutions using 0.9% aqueous sodium chloride were injected subcutaneously under the plantar foot pads of the right hind feet of 10 mice per concentration. The 26 gauge, 2 in. needle of a Hamilton 5 μL syringe was inserted at the rear of the plantar surface and threaded forward. The dose, 5 μL, was delivered subcutaneously near the interdigital foot pads. Subsequently, both hind feet were coated with a 1:1 suspension of soluble starch in 2% ethanolic iodine-castor oil.
At 5 minutes after test solution injection, sweating was stimulated by injecting each animal intraperitoneally with 0.20 mL of 1 mg/mL pilocarpine.HCl in 0.9% aqueous sodium chloride. The appearance of blue-black spots within five minutes after stimulation by pilocarpine was the criterion for sweating. The criterion for the animals responding to the anticholinergic was absence of sweating on two or more tubercles of the treated foot. A 7X magnifying glass was used to enlarge the foot for evaluation.
As many concentrations were tested as needed to obtain two points with more than 50% but less than 100% of the animals responding and two points with less than 50% but more than 0% of the animals responding.
For some esters it was necessary to alter the concentration interval to obtain the appropriate spread of responses in a minimum of trials. […] Each compound was run at least twice. The average EC50 was used for comparison with other anticholinergics.

[2] = test system: pupil light reflex of rabbit eye; experiment: Rabbit abolition of light reflex assay (RALR), mydriasis
Description: In order to determine the potential for mydriasis produced by the anticholinergic antiperspirant compositions of our invention, the rabbit abolition of light reflex assay was employed. In this assay, solutions of test compounds are instilled in the eyes of rabbits and response to light stimulus followed as a function of time.
The test animals used were female, New Zealand albino rabbits which were 12 to 14 weeks old when first used for testing. A test group consisted of fifteen animals and could be used 8 to 10 weeks before the rabbits became too large to handle.
Prior to the first use of a rabbit group, a determination of the responsiveness of each pupil to a light stimulus was determined. Under room illumination provided by fluorescent tubes, the bilateral symmetry of the pupil light reflex was ascertained by directing a beam of light from a penlight-type of flashlight into each pupil. If proper response was present, the animals were subsequently used.
The mydriatic response to an anticholinergic was determined in the following manner. The animals were held in wooden restrainer boxes during the test. The distance between the mid-sagittal plane of one animal and that of the immediately adjacent animal was 11 inches. Into one conjunctival sac of each animal was installed 0.1 mL of a given concentration of the compound under test in 0.9% sodium chloride. […] Thus, for eucatropine derivatives, solutions were prepared to correspond to one percent eucatropine.HCl. After installation of the solution, the lids of the treated eye were held closed for one minute to prevent the loss of the test dose. After this time the lids were held open by gentle finger pressure, and the cornea and conjunctival sac irrigated with one mL of 0.9% aqueous sodium chloride applied in drops from a 10 mL syringe. The procedure was repeated in the other eye using 0.1 mL 0.9% saline as a control. Each rabbit was treated at two to three minutes following the preceding rabbit.
Observation of the rabbit eye pupil size was made at 30, 60 and 120 minutes after treatment by directing a penlight beam into each pupil. The response of both pupils to light was observed. Any degree of contraction of the pupil of the treated eye which was obviously less than that of the untreated eye was recorded as incomplete (partial) inhibition of the reflex. Failure of the pupil of the treated eye to contract in response to light was recorded as complete inhibition of the reflex. The responses of each rabbit were recorded. Both partial and complete inhibition were recorded as inhibited. The animals were not used again for at least 72 hours and the same eye was not used for treatment by test solutions in successive experiments.

[3] = esters synthesized by DCC method
[4] = esters synthesized by DCC method, fraction of animals with inhibition at 60 min, 1% solutions based on eucatropine
[5] = esters synthesized via acid chloride
[6] = esters synthesized via acid chloride, fraction of animals with inhibition at 60 min, 1% solutions based on eucatropine

Compound | antiperspirant potency relative to eucatropine (in words) [1] | EC50 [1, 3] | RALR (60 min.) ([2]; rabbit, in vivo) | RALR (60 min.) [2, 4] | further results
CC1CC(OC(=O)C(OC(=O)c2cnccn2)c2ccccc2)CC(C)(C)N1C.Cl (centres unmarked) | a reduction in EC50 over eucatropine | 11 mM | 0.80 | – | mydriasis in the rabbit eye (in words) ([2]; rabbit, in vivo): reduced mydriasis
CC1CC(OC(=O)C(OC(=O)c2cnc3ccccc3c2)c2ccccc2)CC(C)(C)N1C.Cl (centres unmarked) | a reduction in EC50 over eucatropine | 10 mM | – | 0.73 | mydriasis in the rabbit eye (in words) ([2]; compared with eucatropine): reduced mydriasis
CC1CC(OC(=O)C(OC(=O)c2ccc(N(C)C)cc2)c2ccccc2)CC(C)(C)N1C.Cl (centres unmarked) | – | 25 mM | – | 0.27 | –
CC1CC(OC(=O)C(OC(=O)c2ccnc3ccccc23)c2ccccc2)CC(C)(C)N1C.Cl (centres unmarked) | a reduction in EC50 over eucatropine | – | – | 0.60 | mydriasis in the rabbit eye (in words) ([2]; compared with eucatropine): reduced mydriasis
CC1CC(OC(=O)C(OC(=O)C2CCC2)c2ccccc2)CC(C)(C)N1C.Cl (centres unmarked) | – | 18 mM | 1.00 | – | –
CC1CC(OC(=O)C(OC(=O)C2CCCCC2)c2ccccc2)CC(C)(C)N1C.Cl (centres unmarked) | – | 41 mM | – | – | EC50 [1, 5]: 43 mM
CC1CC(OC(=O)C(OC(=O)CC2CCCCC2)c2ccccc2)CC(C)(C)N1C.Cl (centres unmarked) | – | 87 mM | 0.67 | – | –
CC1CC(OC(=O)C(OC(=O)CC2CCCC2)c2ccccc2)CC(C)(C)N1C.Cl (centres unmarked) | – | 67 mM | 1.00 | – | –
CC1CC(OC(=O)C(OC(=O)C2CC2)c2ccccc2)CC(C)(C)N1C.Cl (centres unmarked) | – | 4.7 mM and 4.8 mM | 1.00 | – | EC50 [1, 5]: 36 mM
CC1CC(OC(=O)C(OC(=O)c2ccncc2)c2ccccc2)CC(C)(C)N1C.Cl (centres unmarked) | only a slight decrease in antiperspirant potency relative to eucatropine | 5.2 mM | 0.00 | – | mydriasis in the rabbit eye (in words) ([2]; rabbit, in vivo): no mydriasis
CC1CC(OC(=O)C(OC(=O)c2ccccn2)c2ccccc2)CC(C)(C)N1C.Cl (centres unmarked) | only a slight decrease in antiperspirant potency relative to eucatropine | 2 mM | 0.40 | – | –
CC1CC(OC(=O)C(OC(=O)C(Cl)c2ccccc2)c2ccccc2)CC(C)(C)N1C.Cl (centres unmarked) | equalled or nearly equalled that of the parent eucatropine | 1.4 mM | – | – | –
COc1ccc(C(=O)OC(C(=O)OC2CC(C)N(C)C(C)(C)C2)c2ccccc2)cc1.Cl (centres unmarked) | – | 16 mM | – | – | –
O=C(O)C1CCCC1 [Cyclopentanecarboxylate] | – | 78 mM | 0.67 | – | –
CC1CC(OC(=O)C(O)c2ccccc2)CC(C)(C)N1C (centres unmarked) [H, eucatropine] | – | – | 1.00 | – | EC50 ([1]; Mus musculus, sc, parent eucatropine (ester group H)): 7.2 mM; incomplete response (light reflex) in rabbits at 60 minutes ([2]; rabbit, in vivo): eight out of eight
CC(C)C(=O)O [Isobutyrate] | – | 1.6 mM | 0.88 | – | –
CC1CC(OC(=O)C(OC(=O)c2cccnc2)c2ccccc2)CC(C)(C)N1C.Cl (centres unmarked) [Nicotinate] | only a slight decrease in antiperspirant potency relative to eucatropine | 6.5 mM | – | 0.60 | –
CCCCCCCC(=O)OC(C(=O)OC1CC(C)N(C)C(C)(C)C1)c1ccccc1.Cl (centres unmarked) [Octanoate] | – | 11 mM | – | 0.93 | EC50 [1, 5]: 9.6 mM; RALR (60 min.) [2, 6]: 0.50
Cc1ccc(C(=O)OC(C(=O)OC2CC(C)N(C)C(C)(C)C2)c2ccccc2)cc1.Cl (centres unmarked) [p-Toluate] | – | 84 mM | – | – | –
Benzoate | more potent than eucatropine | 0.3 mM | – | 0.88 and 0.87 | EC50 [1, 5]: 25 mM; RALR (60 min.) [2, 6]: 0.20
Phenylacetate | equalled or nearly equalled that of the parent eucatropine | 5.3 mM | – | 1.00 | EC50 [1, 5]: 78 mM; RALR (60 min.) [2, 6]: 0.47
